Nc1cccc2cccc(N)c12
solubility (mole fraction)
Settings	273.15 K	278.15 K	283.15 K	288.15 K	293.15 K	298.15 K	303.15 K	308.15 K	313.15 K
in acetonitrile	0.0518	0.065	0.0798	0.0966	0.116	0.139	0.166	0.197	0.231
in ethyl acetate	0.0765	0.091	0.107	0.127	0.152	0.179	0.212	0.252	0.295
in isopropanol	0.0221	0.0277	0.0338	0.0407	0.0491	0.0588	0.0688	0.0807	0.0936
in methanol	0.018	0.0219	0.0267	0.0327	0.0391	0.0467	0.0551	0.0647	0.0754
in n-propanol	0.0385	0.0484	0.0594	0.0718	0.0868	0.103	0.121	0.142	0.166
in toluene	0.0423	0.0512	0.0654	0.0803	0.0966	0.117	0.138	0.163	0.189

Nc1cccc2c(N)cccc12
solubility (mole fraction)
Settings	273.15 K	278.15 K	283.15 K	288.15 K	293.15 K	298.15 K	303.15 K	308.15 K	313.15 K
in acetonitrile	0.00186	0.00238	0.00305	0.00382	0.00477	0.00577	0.00695	0.00834	0.00983
in ethyl acetate	0.00404	0.00487	0.00569	0.00662	0.00759	0.00869	0.00992	0.0113	0.0128
in isopropanol	0.000471	0.000564	0.000684	0.000807	0.000947	0.0011	0.00126	0.00144	0.00163
in methanol	0.00112	0.00132	0.00154	0.00181	0.00209	0.0024	0.00278	0.0032	0.00369
in n-propanol	0.00064	0.000762	0.000895	0.00105	0.00122	0.00142	0.00165	0.00192	0.00224
in toluene	0.000262	0.000345	0.000445	0.00056	0.000689	0.00084	0.00102	0.0012	0.0014

— BigSolDB 2.1
